{"source": "patent US5700480A", "about": "“Transdermal therapeutic system comprising galanthamine as active component” (priority 1993, dated 1997)", "key": {"[1]": {"assay": "penetration through excized rodent (mice) skin, Franz' diffusion cells", "assay_type": "in vitro ADME", "conditions": "galanthamine, mice skin in vitro; addition of the acid as penetration enhancer", "description": "150 g 52.8% (w/w) active substance-containing adhesive solution result which is spread on an aluminized and siliconized polyethylene sheet by means of a 350 μm coating knife. After the solvents have been removed by drying for 30 min. up to 60° C., the adhesive film is covered with a polyester sheet (15 μm). An area of 16 cm^2 is punched by means of a suitable cutting tool and the edges are separated off. The release relating to both this and the other examples is listed in the table; the list indicates both the controlled release into a physiological saline and through excized rodent skin.\nThe in-vitro-release was determined in a shaking water bath at 37° C. The acceptor medium was 100 ml physiological saline which was completely changed after 2, 4 and 8 hours. The concentration was determined by HPLC after 2, 4, and 8 and 24 hours. The penetration through mice skin was measured by means of Franz' diffusion cells."}, "cholinesterase": {"system": "cholinesterase", "conditions": "cited from earlier work"}, "[2]": {"conditions": "vs physostigmine or neostigmine; cited from earlier work"}}}
{"compound": "CC(C)CCCCCCCCCCCCCCC(=O)O", "note": "[isostearic acid]", "values": [{"measurement": "penetration rate increase by addition of acid", "setting": "[1]", "result": 1.5, "unit": "factor"}]}
{"compound": "CCCCCCCC(=O)O", "note": "[octanoic acid]", "values": [{"measurement": "penetration rate increase by addition of acid", "setting": "[1]", "result": 1.5, "unit": "factor"}]}
{"compound": "COc1ccc2c3c1OC1CC(O)C=CC31CCN(C)C2", "note": "(centres unmarked) [galanthamine, 4a,5,9,10,11,12-hexahydro-3-methoxy-11-methyl-6H-benzofuro (3a,3,2-ef) (2) benzazepin-6-ol]", "values": [{"measurement": "cholinesterase inhibition (in words)", "setting": "cholinesterase; pharmacological properties", "result": "reversibly acting cholinesterase inhibitors"}, {"measurement": "cholinesterase inhibiting-action, relative to the dosage", "setting": "cholinesterase; vs physostigmine or neostigmine", "result": "slightly lower"}, {"measurement": "therapeutic range", "setting": "[2]", "result": "three to six times broader"}, {"measurement": "toxicity (in words)", "setting": "[2]", "result": "not as toxic as physostigmine or neostigmine"}]}
{"compound": "CCCCCCCC/C=C\\CCCCCCCC(=O)O", "note": "[oleic acid]", "values": [{"measurement": "penetration rate increase by addition of acid", "setting": "[1]", "result": 1.5, "unit": "factor"}]}
{"compound": "C=CCCCCCCCCC(=O)O", "note": "[undecenoic acid]", "values": [{"measurement": "penetration rate increase by addition of acid", "setting": "[1]", "result": 1.5, "unit": "factor"}]}
